For orientation: IC50 means the concentration that gives 50% inhibition. Read a high IC50 as lower potency.

These results are taken from article PMC11172662, “Anticancer Effect of Hemin through ANO1 Inhibition in Human Prostate Cancer Cells” (International Journal of Molecular Sciences, 2024).

SMILES strings stand for the structures.

Assay [1] concerns the target T1, ANO1 (anoctamin1, TMEM16A) (Homo sapiens, UniProt Q5XXA6).
T1 sequence (Q5XXA6 1-986): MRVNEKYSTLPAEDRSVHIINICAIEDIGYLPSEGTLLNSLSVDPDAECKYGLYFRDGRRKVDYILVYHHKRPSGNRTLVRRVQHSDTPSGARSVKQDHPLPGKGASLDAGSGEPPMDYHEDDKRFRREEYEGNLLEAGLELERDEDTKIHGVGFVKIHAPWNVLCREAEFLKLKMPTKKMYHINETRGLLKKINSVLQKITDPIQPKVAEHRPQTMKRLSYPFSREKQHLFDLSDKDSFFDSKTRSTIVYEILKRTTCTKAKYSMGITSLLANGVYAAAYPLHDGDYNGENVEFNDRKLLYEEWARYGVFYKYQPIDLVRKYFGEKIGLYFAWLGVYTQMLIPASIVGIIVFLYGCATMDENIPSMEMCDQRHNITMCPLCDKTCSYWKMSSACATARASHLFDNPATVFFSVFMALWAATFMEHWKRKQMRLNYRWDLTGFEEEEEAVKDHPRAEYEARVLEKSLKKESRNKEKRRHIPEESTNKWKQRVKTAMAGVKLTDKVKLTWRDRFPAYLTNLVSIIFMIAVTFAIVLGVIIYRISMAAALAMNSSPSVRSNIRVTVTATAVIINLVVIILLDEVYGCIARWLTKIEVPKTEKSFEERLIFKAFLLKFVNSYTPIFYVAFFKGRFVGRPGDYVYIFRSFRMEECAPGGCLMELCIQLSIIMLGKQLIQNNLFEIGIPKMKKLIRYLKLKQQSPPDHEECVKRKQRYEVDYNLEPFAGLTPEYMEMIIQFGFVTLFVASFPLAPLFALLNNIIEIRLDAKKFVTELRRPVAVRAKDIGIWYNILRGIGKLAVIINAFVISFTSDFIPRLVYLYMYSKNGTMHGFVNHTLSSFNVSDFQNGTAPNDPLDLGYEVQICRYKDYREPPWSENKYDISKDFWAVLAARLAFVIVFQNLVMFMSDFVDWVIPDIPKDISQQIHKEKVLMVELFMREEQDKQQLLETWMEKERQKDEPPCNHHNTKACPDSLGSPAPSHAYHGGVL
The assay is described as follows: YFP fluorescence quenching assay in FRT cells expressing human ANO1; confirmed by short-circuit current (PC-3 cells IC50 […]). It counts as cell-based.

The next assay has as its target T2, ANO2 (Homo sapiens, UniProt Q9NQ90).
T2 sequence (Q9NQ90 1-998): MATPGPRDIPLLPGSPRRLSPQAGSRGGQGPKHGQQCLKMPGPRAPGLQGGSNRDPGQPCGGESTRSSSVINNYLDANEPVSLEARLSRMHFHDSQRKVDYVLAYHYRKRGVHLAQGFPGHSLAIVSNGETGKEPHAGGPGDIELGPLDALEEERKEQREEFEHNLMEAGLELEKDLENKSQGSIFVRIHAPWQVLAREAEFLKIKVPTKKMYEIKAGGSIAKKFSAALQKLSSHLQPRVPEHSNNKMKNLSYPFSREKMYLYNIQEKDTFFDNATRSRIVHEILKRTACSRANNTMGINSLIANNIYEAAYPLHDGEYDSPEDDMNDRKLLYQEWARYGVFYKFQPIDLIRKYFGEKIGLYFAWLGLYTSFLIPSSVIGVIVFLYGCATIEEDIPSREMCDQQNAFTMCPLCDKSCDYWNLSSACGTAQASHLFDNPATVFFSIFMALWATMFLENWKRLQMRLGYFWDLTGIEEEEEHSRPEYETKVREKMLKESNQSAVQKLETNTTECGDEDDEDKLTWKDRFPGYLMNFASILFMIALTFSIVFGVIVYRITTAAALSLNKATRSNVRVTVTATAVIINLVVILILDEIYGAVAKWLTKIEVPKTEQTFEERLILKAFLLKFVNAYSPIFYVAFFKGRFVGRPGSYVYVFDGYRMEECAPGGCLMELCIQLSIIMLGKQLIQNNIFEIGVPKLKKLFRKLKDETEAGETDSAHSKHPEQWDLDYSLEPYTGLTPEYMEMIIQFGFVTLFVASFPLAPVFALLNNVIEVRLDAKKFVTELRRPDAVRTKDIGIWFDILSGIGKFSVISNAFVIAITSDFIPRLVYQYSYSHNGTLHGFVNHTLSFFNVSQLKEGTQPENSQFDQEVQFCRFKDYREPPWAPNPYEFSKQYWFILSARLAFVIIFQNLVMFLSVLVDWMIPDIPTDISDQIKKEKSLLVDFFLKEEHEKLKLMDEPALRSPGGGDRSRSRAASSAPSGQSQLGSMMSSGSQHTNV
The assay is described as follows: YFP fluorescence quenching assay in FRT cells expressing human ANO2. It counts as cell-based.

As to `C=CC1=C(C)C2=Cc3c(C=C)c(C)c4[n]3[Fe]([Cl])[n]3c(c(C)c(CCC(=O)O)c3=CC3=NC(=C4)C(C)=C3CCC(=O)O)=CC1=N2` [hemin], the IC50 in assay [1] amounted to 0.51 µM; at ANO2 it was 4.09 µM.
